{"source": "patent US5681817A", "about": "“Treatment of ovarian estrogen dependent conditions” (The Medical College of Hampton Roads, priority 1994, dated 1997)", "key": {"[1]": {"test_system": "female cynomolgus monkeys", "experiment": "Ovulation and serum estradiol/progesterone by RIA in monkeys with induced endometriosis", "assay_type": "in vivo, cynomolgus monkeys (Macaca facularis)", "conditions": "for mean tonic serum estradiol level: RIA, FIG. 1, control 40.6±43; for suppression of ovulation: treatment alone", "description": "For the purposes of this study, the gonadotropin releasing hormone agonist selected was leuprolide acetate, the anti-progestin selected was RU 486 and these were administered to female cynomolgus monkeys, which are recognized to be a highly desirable model for human research.\nThirty-six adult female cynomolgus monkeys (Macaca facularis) having regular menstrual cycles were housed in individual cages which had food and water available ad librium.\n(§1) Using anesthesia (ketamine 20 mg/kg im, xylazine, 1 mg/kg) on day 3 of the menstrual cycle, a diagnostic laparoscopy was performed to rule out pelvic adhesive disease or extant endometriosis. Monkeys with observable pelvic adhesions were excluded. Blood was collected on menstrual days 8-14 via venipuncture (ketamine 10 mg/kg im), and serum assayed for estradiol-17β by RIA. Laparotomy (ketamine 20 mg/kg, xylazine 1 mg/kg) was performed 3-5 days after a clearly defined pre-ovulatory estradiol peak. A 2 cm fundal hysterotomy was performed and approximately 100 mg of endometrium removed by curettage and minced in sterile 0.9% saline. The uterine incision was closed with 4-0 vicryl suture. The minced endometrial tissue was injected sub-peritoneally into five sites, namely, the left and right vesicouterine fold, right and left broad ligaments, and the cul-de-sac.\n(§2) Primates were divided equally into four treatment groups (N=8). Group 1 was given monthly injections of the gonadotropin releasing hormone agonist, in an amount of 80 μg/kg im on menstrual day 21 of the second laparotomy cycle. This was continued at 28 day intervals for a total of 3 injections, at which time weekly injections of the antiprogestin RU 486 began, (5 mg/kg im, in oil, initially, then 2 mg/kg/week). RU 486 was continued for a period of 24 weeks.\n(§3) Group 2 was given weekly im injections of RU 486 alone (5 mg/kg initially, then 2 mg/kg/week) beginning on menstrual day 1 of the cycle after the endometriosis was confirmed. This was continued for a treatment period of 36 weeks. Group 3 was given doses of the GnRH analog alone for 36 weeks. Group 4 was a control and received vehicle, 0.5 ml of normal saline im, weekly for 36 weeks.\nUsing ketamine anesthesia, blood was collected on alternate days in all groups for 28 days after the initial treatments following confirmation of active endometriosis. The serum was frozen for later analysis. Thereafter, blood was collected weekly. Blood draws continued until spontaneous menses resumed, or two months after the conclusion of injections, whichever came first. Serum was frozen, labelled, and stored for subsequent radioimmunoassay. Estradiol and progesterone were assayed using RIA (ICN Biomedical, Los Angeles, Calif.)."}, "[2]": {"test_system": "peritoneal endometriosis (ectopic endometrial implants)", "experiment": "Area of ectopic endometrium on peritoneal surfaces at staging laparotomy", "assay_type": "in vivo, cynomolgus monkeys (Macaca facularis)", "conditions": "for area of ectopic endometrium on peritoneal surfaces / size of endometrial implants: post-treatment vs pre-treatment and vs control, FIG. 2, Wilcoxon p<0.05; for mean area of peritoneal disease after switch from GnRH analog to RU 486: Group 1, RU 486 for three months after the course of GnRH analog", "description": "as §1\nDuring the subsequent menstrual cycle, laparotomy was performed 3 to 5 days after the mid-cycle estradiol surge. The presence of ectopic endometrial tissue and the extent of adhesions were noted, with peritoneal implants carefully measured. Photographs of all lesions were taken and assigned a random number for later histological staging of the endometriosis by an independent observer. Biopsies were taken from representative lesions, and the tissue fixed in 10% formalin for histologic examination after hematoxylin and eosin staining.\nas §2, §3\nAfter daily injections began, a staging laparotomy was performed every 12 weeks until the end of therapy to assess the progression or regression of the disease."}, "[3]": {"test_system": "bone mineral density of the lumbar spine", "experiment": "Dual X-ray absorptiometry bone mineral density of the lumbar spine", "assay_type": "in vivo, cynomolgus monkeys (Macaca facularis)", "conditions": "for change in bone density: after three months of treatment, group level; for bone density in fast bone losers: group 1 animals losing bone on GnRH analog (e.g. monkey 2190, FIG. 3), three months GnRH analog, then three months antiprogestin", "description": "as §2, §3\nUrine was collected at the time of blood sampling. The first sample was taken at the time of the first laparotomy and the second sample was taken at the time of the first injection with subsequent samples drawn every four weeks from the time of the second urine sample. Dual X-ray absorptiometry (DXA, Norland) was used to measure the bone mineral density of the lumbar spine. Primates were anesthetized with ketamine and restrained to minimize motion artifact. DXA was performed before injections began and at three month intervals until completion of the study."}, "[4]": {"test_system": "endometrial and vaginal epithelium", "experiment": "Histological assessment of endometrium and vaginal epithelium (hematoxylin and eosin)", "assay_type": "in vivo, cynomolgus monkeys (Macaca facularis)", "conditions": "for ENDOMETRIUM MENTRUAL PHASE / ENDOMETRIUM THICKNESS / VAGINAL EPITHELIUM AND KERATIN: histology; for ENDOMETRIUM MENTRUAL PHASE / ENDOMETRIUM THICKNESS: hematoxylin and eosin; for VAGINAL EPITHELIUM AND KERATIN: thickness", "description": "Primates were divided equally into four treatment groups (N=8). Group 1 was given monthly injections of the gonadotropin releasing hormone agonist, in an amount of 80 μg/kg im on menstrual day 21 of the second laparotomy cycle. This was continued at 28 day intervals for a total of 3 injections, at which time weekly injections of the antiprogestin RU 486 began, (5 mg/kg im, in oil, initially, then 2 mg/kg/week). RU 486 was continued for a period of 24 weeks. Group 2 was given weekly im injections of RU 486 alone (5 mg/kg initially, then 2 mg/kg/week) beginning on menstrual day 1 of the cycle after the endometriosis was confirmed. This was continued for a treatment period of 36 weeks. Group 3 was given doses of the GnRH analog alone for 36 weeks. Group 4 was a control and received vehicle, 0.5 ml of normal saline im, weekly for 36 weeks. Vaginal epithelium was obtained at the time of each surgery using Kevorkian biopsy forceps taken from the lateral vaginal side of the upper two-thirds of the vagina. At the time of each laparotomy, a small repeat hysterotomy was performed for the purpose of endometrial sampling for histologic examination."}, "uterine leiomyomata": {"test_system": "uterine leiomyomata", "conditions": "cited from earlier work"}, "endometriosis": {"test_system": "endometriosis", "conditions": "cited from earlier work"}}, "note": "“Also recorded” adds a separate entry of the source."}
{"smiles": "CCNC(=O)[C@@H]1CCCN1C(=O)[C@H](CCCNC(=N)N)NC(=O)[C@H](CC(C)C)NC(=O)[C@@H](CC(C)C)NC(=O)[C@H](Cc1ccc(O)cc1)NC(=O)[C@H](CO)NC(=O)[C@H](Cc1c[nH]c2ccccc12)NC(=O)[C@H](Cc1c[nH]cn1)NC(=O)[C@@H]1CCC(=O)N1", "note": "[GnRH analog, leuprolide acetate]", "values": [{"measurement": "mean tonic serum estradiol level", "setting": "[1]", "result": "24.2 ± 17", "unit": "pg/mL"}, {"measurement": "suppression of ovulation", "setting": "[1]", "result": "suppression of ovulation"}, {"measurement": "area of ectopic endometrium on peritoneal surfaces / size of endometrial implants", "setting": "[2]", "result": "unequivocal limiting impact"}, {"measurement": "change in bone density", "setting": "[3]", "result": "no change"}, {"measurement": "bone density in fast bone losers", "setting": "[3]", "result": "significant degree of bone loss"}, {"measurement": "ENDOMETRIUM MENTRUAL PHASE", "setting": "[4]", "result": "weakly proliferative"}, {"measurement": "ENDOMETRIUM THICKNESS", "setting": "[4]", "result": "uniformly thin"}, {"measurement": "ENDOMETRIUM THICKNESS", "setting": "[4]; listed as ANALOG ONLY", "result": "THIN"}, {"measurement": "VAGINAL EPITHELIUM AND KERATIN", "setting": "[4]", "result": "THIN"}]}
{"smiles": "CC#C[C@]1(O)CC[C@H]2[C@@H]3CCC4=CC(=O)CCC4=C3[C@@H](c3ccc(N(C)C)cc3)C[C@@]21C", "note": "[RU 486, mifepristone]", "values": [{"measurement": "mean tonic serum estradiol level", "setting": "[1]", "result": "57.8 ± 34.6", "unit": "pg/mL"}, {"measurement": "suppression of ovulation", "setting": "[1]", "result": "suppression of ovulation"}, {"measurement": "mean area of peritoneal disease after switch from GnRH analog to RU 486", "setting": "[2]", "result": "remained the unchanged"}, {"measurement": "mean area of peritoneal disease after switch from GnRH analog to RU 486", "setting": "[2]; listed as antiprogestin", "result": "able to sustain the reduced surface of peritoneal endometriosis"}, {"measurement": "area of ectopic endometrium on peritoneal surfaces / size of endometrial implants", "setting": "[2]", "result": "unequivocal limiting impact"}, {"measurement": "bone density, PRE-TREATMENT (MEAN ± SD)", "setting": "[3]; DXA lumbar spine, baseline before injections", "result": "0.501 ± 0.029"}, {"measurement": "bone density, AFTER 3 MONTHS", "setting": "[3]; DXA lumbar spine, mean ± SD, in group 1 the first 3 months are GnRH analog", "result": "0.541 ± 0.033"}, {"measurement": "change in bone density", "setting": "[3]", "result": "marginally significant increase in bone density"}, {"measurement": "bone density in fast bone losers", "setting": "[3]", "result": "counteracted this loss; also recorded: returned to baseline"}, {"measurement": "vaginal atrophy", "setting": "[4]; cynomolgus monkey, in vivo", "result": "not noted"}, {"measurement": "ENDOMETRIUM MENTRUAL PHASE", "setting": "[4]", "result": "interval phase"}, {"measurement": "ENDOMETRIUM THICKNESS", "setting": "[4]; listed as antiprogestin", "result": "thinner than in control monkeys; also recorded: remained moderately thin"}, {"measurement": "VAGINAL EPITHELIUM AND KERATIN", "setting": "[4]; listed as antiprogestin", "result": "greater in the antiprogestin group than in the GnRH analog groups; also recorded: thicker"}]}
{"smiles": "CC(=O)O[C@]1(C(C)=O)CC[C@H]2[C@@H]3C[C@H](C)C4=CC(=O)CC[C@]4(C)[C@H]3CC[C@@]21C", "note": "[medoxyprogesterone acetate]", "values": [{"measurement": "hot flashes and urinary calcium loss", "setting": "uterine leiomyomata; add-back regimen with leuprolide", "result": "reduced"}, {"measurement": "total uterine volume", "setting": "uterine leiomyomata; add-back regimen with leuprolide, not back to baseline values", "result": "modest increase"}, {"measurement": "effect on agonist-induced decrease of nonmyoma volume", "setting": "uterine leiomyomata; concomitant treatment with leuprolide", "result": "reverse the effectiveness"}]}
{"smiles": "C#C[C@]1(O)CC[C@H]2[C@@H]3CCC4=Cc5oncc5C[C@]4(C)[C@H]3CC[C@@]21C", "note": "[danazol, 17-α-pregna-2,4-dien-20-yno[2,3-d]-isoxazol-17-ol]", "values": [{"measurement": "side effects", "setting": "endometriosis; in vivo", "result": "many androgenic side effects"}, {"measurement": "efficacy in treatment of endometriosis", "setting": "endometriosis; producing a hypoestrogenic milieu", "result": "effective medication for the treatment of endometriosis"}]}
